In patent publication US10294202B2, “Pyrrolidinones as herbicides” (FMC Corporation, priority 2013, dated 2019):

Experiments:
barnyardgrass [1] = assay: Test C flooded paddy test; type: in vivo, Echinochloa crus-galli; conditions: Flood
Outline: (§1)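 Visual ratings from 0, no effect, to 100, complete control, were made against untreated controls after 13–15 greenhouse days. Compounds had gone straight into paddy water 3 cm above the soil, kept at that depth, on 2-leaf-stage plants.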

giant foxtail = assay: Test A pre-/postemergence herbicide test; type: in vivo, Setaria faberii
Outline: (§2)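 Visual injury ratings, 0 = no effect, 100 = complete control, taken ~10 days after treatment against untreated greenhouse controls. Preemergence: directed soil spray onto seeded loam/sand pots. Postemergence: spray onto plants at one- to two-leaf stage, 2–10 cm tall.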

sedge, umbrella = assay: Test C flooded paddy test; type: in vivo, Cyperus difformis; conditions: Flood
Outline: as §1

ducksalad = assay: Test C flooded paddy test; type: in vivo, Heteranthera limosa; conditions: Flood
Outline: as §1

corn = assay: Test A pre-/postemergence herbicide test; type: in vivo, Zea mays
Outline: as §2

crabgrass, large = assay: Test A pre-/postemergence herbicide test; type: in vivo, Digitaria sanguinalis
Outline: as §2

velvetleaf = assay: Test A pre-/postemergence herbicide test; type: in vivo, Abutilon theophrasti
Outline: as §2

pigweed = assay: Test A pre-/postemergence herbicide test; type: in vivo, Amaranthus retroflexus
Outline: as §2

morningglory = assay: Test A pre-/postemergence herbicide test; type: in vivo, Ipomoea spp.
Outline: as §2

wheat = assay: Test A pre-/postemergence herbicide test; type: in vivo, Triticum aestivum
Outline: as §2

rice = assay: Test C flooded paddy test; type: in vivo, Oryza sativa; conditions: Flood
Outline: as §1

barnyardgrass [2] = assay: Test A pre-/postemergence herbicide test; type: in vivo, Echinochloa crus-galli
Outline: as §2

[3] = 62 g ai/ha, scale of 0 to 100 where 0 is no effect and 100 is complete control, 13 to 15 days
[4] = Postemergence, 125 g ai/ha, 0 to 100 scale, 0 no effect, 100 complete control
[5] = Postemergence, 500 g ai/ha, 0 to 100 scale (0 no effect, 100 complete control)
[6] = Preemergence, 125 g ai/ha, visual rating on 0 to 100 scale (0 no effect, 100 complete control)
[7] = preemergence, 500 g ai/ha, 0 to 100 scale
[8] = 31 g ai/ha, scale of 0 to 100 where 0 is no effect and 100 is complete control, 13 to 15 days
[9] = 125 g ai/ha, scale of 0 to 100 where 0 is no effect and 100 is complete control, 13 to 15 days
[10] = Postemergence, 1000 g ai/ha, 0 to 100 scale (0 no effect, 100 complete control)
[11] = Preemergence, 1000 g ai/ha, visual rating on 0 to 100 scale (0 no effect, 100 complete control), approx. 10 days

N#Cc1ccccc1NC(=O)C1C(=O)NCC1c1ccc(Cl)c(Cl)c1 (racemic) [Compound 15]
50: Plant response rating, Foxtail, Giant (giant foxtail; [7])
0: Plant response rating, Barnyardgrass (barnyardgrass [1]; [3]) | Plant response rating, Barnyardgrass (barnyardgrass [1]; 250 g ai/ha, scale 0 to 100) | Plant response rating, Foxtail, Giant (giant foxtail; [4]) | Plant response rating, Foxtail, Giant (giant foxtail; [5]) | Plant response rating, Sedge, Umbrella (sedge, umbrella; [3]) | Plant response rating, Sedge, Umbrella (sedge, umbrella; 250 g ai/ha, scale 0 to 100) | Plant response rating, Ducksalad (ducksalad; [3]) | Plant response rating, Ducksalad (ducksalad; 250 g ai/ha, scale 0 to 100) | Plant response rating, Corn (corn; [4]) | Plant response rating, Corn (corn; [5]) | Corn plant response rating (corn; [6]) | Plant response rating, Corn (corn; [7]) | Plant response rating, Crabgrass, Large (crabgrass, large; [4]) | Plant response rating, Crabgrass, Large (crabgrass, large; [5]) | Plant response rating, Velvetleaf (velvetleaf; [4]) | Plant response rating, Velvetleaf (velvetleaf; [5]) | Velvetleaf plant response rating (velvetleaf; [6]) | Plant response rating, Velvetleaf (velvetleaf; [7]) | Plant response rating, Pigweed (pigweed; [4]) | Plant response rating, Pigweed (pigweed; [5]) | Pigweed plant response rating (pigweed; [6]) | Plant response rating, Pigweed (pigweed; [7]) | Plant response rating, Morningglory (morningglory; [4]) | Plant response rating, Morningglory (morningglory; [5]) | Morningglory plant response rating (morningglory; [6]) | Plant response rating, Morningglory (morningglory; [7]) | Plant response rating, Wheat (wheat; [4]) | Plant response rating, Wheat (wheat; [5]) | Wheat plant response rating (wheat; [6]) | Plant response rating, Wheat (wheat; [7]) | Plant response rating, Rice (rice; [3]) | Plant response rating, Rice (rice; 250 g ai/ha, scale 0 to 100) | Plant response rating, Barnyardgrass (barnyardgrass [2]; [4]) | Plant response rating, Barnyardgrass (barnyardgrass [2]; [5]) | Barnyardgrass plant response rating (barnyardgrass [2]; [6]) | Plant response rating, Barnyardgrass (barnyardgrass [2]; preemergence, 500 g ai/ha, 0 to 100 scale (0 no effect, 100 complete control))
60: Crabgrass, Large plant response rating (crabgrass, large; [6])
20: Foxtail, Giant plant response rating (giant foxtail; [6])
80: Plant response rating, Crabgrass, Large (crabgrass, large; [7])

O=C1NCC(c2ccc(F)c(F)c2)C1C(=O)Nc1ccccc1[N+](=O)[O-] (racemic) [Compound 20]
20: Plant response rating, Wheat (wheat; [10])
0: Plant response rating, Barnyardgrass (barnyardgrass [1]; [8]) | Plant response rating, Barnyardgrass (barnyardgrass [1]; [3]) | Plant response rating, Barnyardgrass (barnyardgrass [1]; [9]) | Plant response rating, Barnyardgrass (barnyardgrass [1]; 250 g ai/ha, scale 0 to 100) | Plant response rating, Sedge, Umbrella (sedge, umbrella; [8]) | Plant response rating, Sedge, Umbrella (sedge, umbrella; [3]) | Plant response rating, Sedge, Umbrella (sedge, umbrella; [9]) | Plant response rating, Sedge, Umbrella (sedge, umbrella; 250 g ai/ha, scale 0 to 100) | Plant response rating, Ducksalad (ducksalad; [8]) | Plant response rating, Ducksalad (ducksalad; [3]) | Plant response rating, Ducksalad (ducksalad; [9]) | Plant response rating, Ducksalad (ducksalad; 250 g ai/ha, scale 0 to 100) | Plant response rating, Corn (corn; [10]) | Plant response rating, Corn (corn; [11]) | Plant response rating, Velvetleaf (velvetleaf; [10]) | Plant response rating, Pigweed (pigweed; [10]) | Plant response rating, Pigweed (pigweed; [11]) | Plant response rating, Morningglory (morningglory; [10]) | Plant response rating, Morningglory (morningglory; [11]) | Plant response rating, Wheat (wheat; [11]) | Plant response rating, Rice (rice; [8]) | Plant response rating, Rice (rice; [3]) | Plant response rating, Rice (rice; [9]) | Plant response rating, Rice (rice; 250 g ai/ha, scale 0 to 100)
30: Plant response rating, Velvetleaf (velvetleaf; [11])
80: Plant response rating, Foxtail, Giant (giant foxtail; [10]) | Plant response rating, Barnyardgrass (barnyardgrass [2]; [10])
90: Plant response rating, Foxtail, Giant (giant foxtail; [11]) | Plant response rating, Crabgrass, Large (crabgrass, large; [10]) | Plant response rating, Crabgrass, Large (crabgrass, large; [11]) | Plant response rating, Barnyardgrass (barnyardgrass [2]; [11])

O=C1NCC(c2ccc(F)c(F)c2)C1C(=O)Nc1ccc(F)cc1F (racemic) [Compound 23]
30: Plant response rating, Sedge, Umbrella (sedge, umbrella; 250 g ai/ha, scale 0 to 100) | Plant response rating, Ducksalad (ducksalad; [3])
80: Plant response rating, Foxtail, Giant (giant foxtail; [10]) | Plant response rating, Crabgrass, Large (crabgrass, large; [10])
100: Plant response rating, Ducksalad (ducksalad; 250 g ai/ha, scale 0 to 100)
90: Plant response rating, Foxtail, Giant (giant foxtail; [11]) | Plant response rating, Crabgrass, Large (crabgrass, large; [11]) | Plant response rating, Barnyardgrass (barnyardgrass [2]; [10]) | Plant response rating, Barnyardgrass (barnyardgrass [2]; [11])
40: Plant response rating, Velvetleaf (velvetleaf; [10]) | Plant response rating, Velvetleaf (velvetleaf; [11])
0: Plant response rating, Barnyardgrass (barnyardgrass [1]; [3]) | Plant response rating, Barnyardgrass (barnyardgrass [1]; 250 g ai/ha, scale 0 to 100) | Plant response rating, Sedge, Umbrella (sedge, umbrella; [3]) | Plant response rating, Corn (corn; [10]) | Plant response rating, Corn (corn; [11]) | Plant response rating, Pigweed (pigweed; [10]) | Plant response rating, Morningglory (morningglory; [10]) | Plant response rating, Morningglory (morningglory; [11]) | Plant response rating, Wheat (wheat; [10]) | Plant response rating, Wheat (wheat; [11]) | Plant response rating, Rice (rice; [3]) | Plant response rating, Rice (rice; 250 g ai/ha, scale 0 to 100)

O=C1NCC(c2ccc(Cl)c(Cl)c2)C1C(=O)Nc1ccccc1C(F)(F)F (racemic) [Compound 26]
60: Plant response rating, Crabgrass, Large (crabgrass, large; [10])
70: Plant response rating, Foxtail, Giant (giant foxtail; [10]) | Plant response rating, Barnyardgrass (barnyardgrass [2]; [10]) | Plant response rating, Barnyardgrass (barnyardgrass [2]; [11])
0: Plant response rating, Barnyardgrass (barnyardgrass [1]; [3]) | Plant response rating, Barnyardgrass (barnyardgrass [1]; 250 g ai/ha, scale 0 to 100) | Plant response rating, Sedge, Umbrella (sedge, umbrella; [3]) | Plant response rating, Sedge, Umbrella (sedge, umbrella; 250 g ai/ha, scale 0 to 100) | Plant response rating, Ducksalad (ducksalad; [3]) | Plant response rating, Corn (corn; [10]) | Plant response rating, Corn (corn; [11]) | Plant response rating, Velvetleaf (velvetleaf; [10]) | Plant response rating, Velvetleaf (velvetleaf; [11]) | Plant response rating, Pigweed (pigweed; [10]) | Plant response rating, Pigweed (pigweed; [11]) | Plant response rating, Morningglory (morningglory; [10]) | Plant response rating, Morningglory (morningglory; [11]) | Plant response rating, Wheat (wheat; [10]) | Plant response rating, Wheat (wheat; [11]) | Plant response rating, Rice (rice; [3]) | Plant response rating, Rice (rice; 250 g ai/ha, scale 0 to 100)
90: Plant response rating, Foxtail, Giant (giant foxtail; [11]) | Plant response rating, Crabgrass, Large (crabgrass, large; [11])
80: Plant response rating, Ducksalad (ducksalad; 250 g ai/ha, scale 0 to 100)

O=C1NCC(c2ccc(Cl)c(Cl)c2)C1C(=O)Nc1cccc(F)c1 (racemic) [Compound 27]
30: Plant response rating, Ducksalad (ducksalad; 250 g ai/ha, scale 0 to 100)
0: Plant response rating, Barnyardgrass (barnyardgrass [1]; [3]) | Plant response rating, Barnyardgrass (barnyardgrass [1]; 250 g ai/ha, scale 0 to 100) | Plant response rating, Sedge, Umbrella (sedge, umbrella; [3]) | Plant response rating, Sedge, Umbrella (sedge, umbrella; 250 g ai/ha, scale 0 to 100) | Plant response rating, Ducksalad (ducksalad; [3]) | Plant response rating, Corn (corn; [10]) | Plant response rating, Corn (corn; [11]) | Plant response rating, Velvetleaf (velvetleaf; [10]) | Plant response rating, Velvetleaf (velvetleaf; [11]) | Plant response rating, Pigweed (pigweed; [10]) | Plant response rating, Pigweed (pigweed; [11]) | Plant response rating, Morningglory (morningglory; [10]) | Plant response rating, Morningglory (morningglory; [11]) | Plant response rating, Wheat (wheat; [10]) | Plant response rating, Wheat (wheat; [11]) | Plant response rating, Rice (rice; [3]) | Plant response rating, Rice (rice; 250 g ai/ha, scale 0 to 100)
70: Plant response rating, Crabgrass, Large (crabgrass, large; [10]) | Plant response rating, Barnyardgrass (barnyardgrass [2]; [10]) | Plant response rating, Barnyardgrass (barnyardgrass [2]; [11])
60: Plant response rating, Foxtail, Giant (giant foxtail; [10])
90: Plant response rating, Foxtail, Giant (giant foxtail; [11]) | Plant response rating, Crabgrass, Large (crabgrass, large; [11])
